According to patent US20110136259A1, “IMMUNOASSAY FOR CROSS-REACTING SUBSTANCES” (LIFE TECHNOLOGIES CORPORATION, priority 2007, published 2011):

Assays:
[1] = test system: Beckmann Access (commercial cortisol immunoassay); test: Synthetic glucocorticoid cross reactivity in Beckman Access cortisol immunoassay; format: binding; set-up: Access Cortisol Value: unit: ng/mL; details: for Access Cortisol Value: Method 1: all synthetics present at 2000 ng/mL, apparent cortisol read by Beckmann Access; for Percent cross reactivity, Access: determined by 2000 ng/mL sample; for % Reactivity (Method 2): serial dilutions 1:2, 1:4, 1:8 and 1:16, linear analysis evaluation; for % Reactivity (Method 1): synthetic present at 2000 ng/mL, (cortisol value)/(concentration of analyte) x 100%
Protocol: Initial synthetic glucocorticoid antibody cross reactivity data included LC-MS/MS analysis of patient samples was followed by analysis via the Beckman immunoassay system, and relative cross reactivities were calculated for each of the synthetic glucocorticoids of interest. Cross reactivities were also calculated based on a linearity study of each of the major cross reactive synthetic glucocorticoids to ensure that the values obtained for each were viable. (Table 1).
(§1) LC-MS/MS analysis of patient samples was followed by analysis using the Beckman Access (commercial assay), and relative cross reactivities were calculated for each of the synthetic glucocorticoids of interest. Synthetic positive patient samples were then mimicked in stripped serum for cortisol, cortisone and exogenous synthetic glucocorticoids. […] The linear relationship for these systems was examined and illustrated.

[2] = test system: Antibody 7 (clone XM210 from Abcam); test: Cross reactivity on anti-cortisol antibody microarray, antibody 7; format: binding; details: for Percent cross reactivity, antibody 7: determined by 2000 ng/mL sample; for % cross reactivity, antibody 7: from slopes of ([apparent cortisol] vs [cross reactant])
Excerpt: (§2) The independent variables, these are x1 and x2 in the model are the various concentrations levels, where x1 is the concentration level of cortisol and x2 is the concentration level of the cross-reactant (in this case either 6AMP or prednisolone). The dependent variable, i.e. the variable that we are trying to predict, is the “apparent” cortisol concentration, which is estimated from the concentration-signal 4 parameter logistic regression model. […] These equations are given by,
(§3) In terms of the model β1 is interpreted as the amount that the “apparent” cortisol is increase per ng/ml increase of cortisol and similarly β2 is interpreted as the amount that the “apparent” cortisol is increased per ng/ml increase of cross-reactant. Finally to estimate the percent cross action it is given by:
(§4) The antibody concentrations were 125 ug/mL in buffered solutions comprising phosphate-buffered saline (PBS) and 1× Whatman Protein Arraying Buffer. The antibody solutions were applied to the slide surface using a Scienion sciflexarryer S5 piezo printer. The average spot sizes were 150 um. The antibodies within a sub array were printed in replicates of five spots, and each slide contained twelve sub arrays arranged in two columns of six. The relative spacing of the sub arrays was nine millimeters, equivalent to the spacing of a 96-well micro titer plate.
The micro-array slides were assembled with a superstructure that creates individual wells that surround the sub array (Slide Incubation Chambers, Whatman). The slides were blocked for one hour with micro array blocking buffer (VWR) and then washed with TRIS-buffered saline with Tween-20 (TBST). Cortisol-containing samples or calibrators were diluted 1 to 20 into a buffered solution that contained the following: TBST, 0.1% SDS, 3.3 nM cortisol 3-CMO Alexa Fluor 555, and 3.3 nM cortisol 21-HS Alexa Fluor 647. One-hundred micro liters of the assay mixture was applied to an individual well on the micro-array slide, and the assay was allowed to proceed for one hour at room temperature in the dark with gentle shaking on a micro-titer plate shaker. The assay mixture was removed, and the slides were washed with TBST, water, and then dried by spinning in a centrifuge. The intensities of fluorescence associated with each spot was quantified using a micro-array reader such as an Axon 4000B or 4200AL. The spot intensities for the calibrators were used to generate a standard curve by fitting the data to a four-parameter logistic model. The concentrations of the cortisol-containing patient samples or synthetic samples were interpolated using the logistic-fit equation. […]

[3] = test system: Antibody 9 (clone F4P1A3 from EMD Biosciences); test: Cross reactivity on anti-cortisol antibody microarray, antibody 9; format: binding; details: for Percent cross reactivity, antibody 9: determined by 2000 ng/mL sample; for % cross reactivity, antibody 9: from slopes of ([apparent cortisol] vs [cross reactant])
Excerpt: as §2, §3, §4
(§5) The micro-array slides were assembled with a superstructure that creates individual wells that surround the sub array (Slide Incubation Chambers, Whatman). The slides were blocked for one hour with micro array blocking buffer (VWR) and then washed with TRIS-buffered saline with Tween-20 (TBST). Cortisol-containing samples or calibrators were diluted 1 to 20 into a buffered solution that contained the following: TBST, 0.1% SDS, 3.3 nM cortisol 3-CMO Alexa Fluor 555, and 3.3 nM cortisol 21-HS Alexa Fluor 647. One-hundred micro liters of the assay mixture was applied to an individual well on the micro-array slide, and the assay was allowed to proceed for one hour at room temperature in the dark with gentle shaking on a micro-titer plate shaker. The assay mixture was removed, and the slides were washed with TBST, water, and then dried by spinning in a centrifuge. The intensities of fluorescence associated with each spot was quantified using a micro-array reader such as an Axon 4000B or 4200AL. The spot intensities for the calibrators were used to generate a standard curve by fitting the data to a four-parameter logistic model. The concentrations of the cortisol-containing patient samples or synthetic samples were interpolated using the logistic-fit equation.
(§6) Subsequently, several cortisol antibodies were synthesized and relative cross reactivities were determined for the synthetic glucocorticoids obtained via the same described the Beckmann system (Tables 4 & 5). Cortisol antibodies should have specificity to distinguish the differences in the A ring of the steroid molecules shown below.

[4] = test system: Antibody 10 (clone A29220314P from BiosPacific); test: Cross reactivity on anti-cortisol antibody microarray, antibody 10; format: binding; details: for Percent cross reactivity, antibody 10: determined by 2000 ng/mL sample; for % cross reactivity, antibody 10: from slopes of ([apparent cortisol] vs [cross reactant])
Excerpt: as §2, §3, §4, §5, §6

antibody 13 = test: Cross reactivity on anti-cortisol antibody microarray, antibody 13; format: binding; details: for Percent cross reactivity, antibody 13: determined by 2000 ng/mL sample; for % cross reactivity, antibody 13: from slopes of ([apparent cortisol] vs [cross reactant])
Excerpt: (§7) This model is used to estimate the cross-reaction percentage. The independent variables, these are x1 and x2 in the model are the various concentrations levels, where x1 is the concentration level of cortisol and x2 is the concentration level of the cross-reactant (in this case either 6AMP or prednisolone). The dependent variable, i.e. the variable that we are trying to predict, is the “apparent” cortisol concentration, which is estimated from the concentration-signal 4 parameter logistic regression model. We fit this model using standard multiple linear regression methods to estimate β1 and β2. These equations are given by,
as §3, §4, §5, §6

antibody 17 = test: Cross reactivity on anti-cortisol antibody microarray, antibody 17; format: binding; details: for Percent cross reactivity, antibody 17: determined by 2000 ng/mL sample; for % cross reactivity, antibody 17: from slopes of ([apparent cortisol] vs [cross reactant])
Excerpt: as §7, §3, §4, §5, §6

[5] = LC-MS/MS analysis of synthetic-positive patient samples; format: in vivo; details: population of positive patient samples
Excerpt: In the present method mass spectrometric methods were used to determine actual analyte levels in clinical patient populations. Some of these samples were subjected to the current immunoassay systems and the interference relationship was established. After identifying the most commonly present exogenous drugs present in the samples, this information was used toward establishing an assay, free from the limitations of the mass spec. deconvolution, that gives an accurate depiction of the analyte, such as cortisol, levels in a patient sample.
A population was drawn of positive synthetic patient samples once cross reactivities were determined for individual steroids (Table 2).
as §1

antibody 21509 = test: Cross reactivity on anti-cortisol antibody microarray, antibody 21509; format: binding; details: from slopes of ([apparent cortisol] vs [cross reactant])
Excerpt: as §7
(§8) In terms of the model β1 is interpreted as the amount that the “apparent” cortisol is increase per ng/ml increase of cortisol and similarly β2 is interpreted as the amount that the “apparent” cortisol is increased per ng/ml increase of cross-reactant. […]
(§9) The micro-array slides were assembled with a superstructure that creates individual wells that surround the sub array (Slide Incubation Chambers, Whatman). […] The intensities of fluorescence associated with each spot was quantified using a micro-array reader such as an Axon 4000B or 4200AL. […]
(§10) Subsequently, several cortisol antibodies were synthesized and relative cross reactivities were determined for the synthetic glucocorticoids obtained via the same described the Beckmann system (Tables 4 & 5). […]

antibody ECB = test: Cross reactivity on anti-cortisol antibody microarray, antibody ECB; format: binding; details: from slopes of ([apparent cortisol] vs [cross reactant])
Excerpt: as §7, §8, §9, §10

Row | SMILES | Access Cortisol Value [1] | Percent cross reactivity, Access [1] [%] | % Reactivity (Method 2) [1] [%] | % Reactivity (Method 1) [1] [%] | Percent cross reactivity, antibody 7 [2] [%] | % cross reactivity, antibody 7 [2] [%] | Percent cross reactivity, antibody 9 [3] [%] | % cross reactivity, antibody 9 [3] [%] | Percent cross reactivity, antibody 10 [4] | % cross reactivity, antibody 10 [4] [%] | Percent cross reactivity, antibody 13 (antibody 13) [%] | % cross reactivity, antibody 13 (antibody 13) [%] | Percent cross reactivity, antibody 17 (antibody 17) [%] | % cross reactivity, antibody 17 (antibody 17) [%] | Range of steroid concentration in synthetic positive patient samples [5] [ng/mL] | % cross reactivity, antibody 21509 (antibody 21509) [%] | % cross reactivity, antibody ECB (antibody ECB) [%]
1 | C[C@H]1C[C@@H]2[C@H]([C@@H](O)C[C@@]3(C)[C@H]2CC[C@]3(O)C(=O)CO)[C@@]2(C)C=CC(=O)C=C12 [SYN-1, 6-a-methyl prednisolone] | 34.4 | 2 | 1.4 | 1.72 | 9 | 7 | 2 | 2 | high | 109 | 10 | 6 | 3 | 1 | 1.7 to 130 | – | –
2 | C[C@]12C=CC(=O)C=C1CC[C@@H]1[C@@H]2C(=O)C[C@@]2(C)[C@H]1CC[C@]2(O)C(=O)CO [SYN-2, Prednisone] | 50.8 | 3 | 2.2 | 2.54 | 1 | <1 | 21 | 26 | 0% | 1 | 1 | – | 20 | – | 1.9 to 72 | <1 | 1
3 | CC1(C)O[C@@H]2C[C@H]3[C@@H]4CCC5=CC(=O)C=C[C@]5(C)[C@@]4(F)[C@@H](O)C[C@]3(C)[C@]2(C(=O)CO)O1 [SYN-3, Triamcinolone acetonide] | – | – | – | – | – | – | – | – | – | – | – | – | – | – | 0.3 to 2.3 | – | –
4 | C[C@]12C=CC(=O)C=C1CC[C@H]1[C@@H]3C[C@@H](O)[C@](O)(C(=O)CO)[C@@]3(C)C[C@H](O)[C@@]12F [SYN-4, Triamcinolone] | 1.1 | 0 | – | 0.055 | 0 | – | 1 | – | 0% | – | 0 | – | 0 | – | – | – | –
5 | C[C@]12CCC(=O)C=C1CC[C@@H]1[C@@H]2C(=O)C[C@@]2(C)[C@H]1CC[C@]2(O)C(=O)CO [SYN-6, Cortisone] | 94 | 5 | 4.5 | 4.7 | 1 | 1 | 13 | 15 | 0% | <1 | 1 | 1 | 11 | 13 | – | – | –
6 | C[C@]12C=CC(=O)C=C1CC[C@@H]1[C@@H]2[C@@H](O)C[C@@]2(C)[C@H]1CC[C@]2(O)C(=O)CO [SYN-7, Prednisolone] | 420.7 | 21 | 20.8 | 21.035 | 5 | 5 | 15 | 37 | 68% | 133 | 4 | 5 | 14 | 35 | 0.6 to 640 | – | –
7 | CC(=O)[C@@]1(O)CC[C@H]2[C@@H]3C[C@H](C)C4=CC(=O)C=C[C@]4(C)[C@@]3(F)[C@@H](O)C[C@@]21C [SYN-8, Fluorometholone] | 0.8 | 0 | – | 0.04 | 0 | – | 0 | – | 6% | – | 0 | – | 0 | – | – | – | –
8 | C[C@@H]1C[C@H]2[C@@H]3CCC4=CC(=O)C=C[C@]4(C)[C@@]3(F)[C@@H](O)C[C@]2(C)[C@@]1(O)C(=O)CO [SYN-10, Dexamethasone] | – | – | – | – | – | – | – | – | – | – | – | – | – | – | 1.0 to 14.0 | – | –
